Patent US7268108B2, “Alpha-melanocyte stimulating hormone derivatives and cosmetic application thereof” (Institut European de Biologie Cellulaire, priority 2002, dated 2007)
“Also recorded” adds a separate entry of the source. Where a SMILES comes first, the peptide text is derived from it. [ ]: non-standard residue; d: D form. Nle = CCCC[C@H](N)C(=O)O

Test system: cutaneous melanogenesis
Assay: double-blind study of melanostimulant effects by topical administration in humans
Assay type: in vivo
Conditions: gel at 10 ppm, topical twice a day for 3 weeks, listed as peptide no. 1
Procedure: 2. A double-blind study of the melanostimulant effects by topical administration of peptide no. 1 in the table was carried out in humans.
A gel of peptide no. 1 at 10 ppm and its placebo were applied, twice a day for 3 weeks, to the inner face of the forearms of twelve normal volunteers who had given their informed consent. Since the arms were not exposed to the sun, they were given an exactly calibrated artificial solar exposure of 0.6 MED (minimum erythema dose) once a day from the 16th to 20th day.
24 h after the final treatment, a clinical evaluation of the treated regions was carried out blind, and the intensity of coloration was marked according to a five-level index scale. A biopsy sample was then taken in order to quantify the melanin produced and to evaluate the ultrastructural consequences of the treatment.
The quantification of the epidermal melanin was carried out on histological sections by image analysis after labeling with AgNO3. Only the active layers of the epidermis were analyzed (from the stratum germinativum to the stratum spinosum), using the Leica Quantimet after digitization (Sony CCD camera).
The ultrastructural analysis of the melanocytes and melanosomes was carried out by electron microscopy. A double-contrast technique was used on the thin sections, which were then observed at magnifications ranging up to ×12000 (Jeol 1200EX).

For CCCC[C@H](NC(C)=O)C(=O)N[C@@H](C)C(=O)N[C@@H](Cc1c[nH]cn1)C(=O)N[C@H](Cc1ccccc1)C(=O)N[C@@H](CCCNC(=N)N)C(=O)N[C@@H](Cc1c[nH]c2ccccc12)C(N)=O [Compound 1, Ac-Nle-Ala-His-DPhe-Arg-Trp-NH2] (Ac-[Nle]AH[dF]RW-NH2), the “local tolerance (clinical observation of the treated regions)” value was “no sign of intolerance; also recorded: completely tolerated at the local level”.
